From the NIST ThermoML archive (doi:10.1016/j.fluid.2004.11.019)
Numbers after ± are expanded uncertainties.

Assay: xn = mol fraction of the nth substance listed
Settings: 298.15 K, Liquid

CCO [ethanol] + O
mass density [kg/m3]
Settings | 10000 kPa | 20000 kPa | 30000 kPa
x1 = 0.003 | – | 1004.2 ± 0.3 | 1008.5 ± 0.3
x1 = 0.0042 | – | 1003.2 ± 0.3 | 1007.4 ± 0.3
x1 = 0.0082 | – | 1001.7 ± 0.2 | 1005.9 ± 0.3
x1 = 0.0119 | – | 1000.1 ± 0.2 | 1004.3 ± 0.3
x1 = 0.0158 | – | 998.2 ± 0.3 | 1002.4 ± 0.3
x1 = 0.0184 | – | 996.8 ± 0.2 | 1000.9 ± 0.2
x1 = 0.0219 | – | 995.9 ± 0.2 | 1000.1 ± 0.2
x1 = 0.0255 | – | 994.4 ± 0.3 | 998.4 ± 0.3
x1 = 0.0279 | – | 992.9 ± 0.2 | 996.9 ± 0.2
x1 = 0.0315 | – | 992.1 ± 0.2 | 996.1 ± 0.2
x1 = 0.0366 | – | 989.8 ± 0.3 | 993.8 ± 0.3
x1 = 0.0392 | – | 988.6 ± 0.3 | 992.6 ± 0.3
x1 = 0.0439 | – | 987.3 ± 0.3 | 991.2 ± 0.3
x1 = 0.0483 | – | 985.6 ± 0.3 | 989.5 ± 0.3
x1 = 0.0516 | – | 985.1 ± 0.3 | 988.9 ± 0.3
x1 = 0.0559 | – | 983.8 ± 0.3 | 987.7 ± 0.3
x1 = 0.06 | – | 982.4 ± 0.3 | 986.3 ± 0.3
x1 = 0.0652 | – | 980.8 ± 0.3 | 984.7 ± 0.3
x1 = 0.0679 | – | 980 ± 0.3 | 983.9 ± 0.3
x1 = 0.0722 | – | 978.7 ± 0.3 | 982.6 ± 0.3
x1 = 0.0801 | – | 976.2 ± 0.3 | 980 ± 0.3
x1 = 0.084 | – | 975.7 ± 0.3 | 979.5 ± 0.3
x1 = 0.0879 | – | 974.4 ± 0.3 | 978.2 ± 0.3
x1 = 0.0926 | – | 973.2 ± 0.3 | 976.9 ± 0.3
x1 = 0.0958 | – | 972.4 ± 0.3 | 976.1 ± 0.3
x1 = 0.1006 | – | 971 ± 0.3 | 974.8 ± 0.3
x1 = 0.1111 | – | 968 ± 0.3 | 971.7 ± 0.3
x1 = 0.1225 | – | 964.7 ± 0.3 | 968.5 ± 0.3
x1 = 0.1296 | – | 962.8 ± 0.3 | 966.7 ± 0.3
x1 = 0.1402 | – | 961.3 ± 0.3 | 963.7 ± 0.3
x1 = 0.151 | – | 956.6 ± 0.3 | 960.5 ± 0.3
x1 = 0.1601 | – | 953.9 ± 0.3 | 957.9 ± 0.3
x1 = 0.1703 | – | 950.9 ± 0.3 | 955 ± 0.3
x1 = 0.18 | – | 948.1 ± 0.3 | 952.2 ± 0.3
x1 = 0.1903 | – | 945.2 ± 0.3 | 949.3 ± 0.3
x1 = 0.1996 | – | 942.3 ± 0.3 | 946.5 ± 0.3
x1 = 0.2269 | – | 934.5 ± 0.3 | 938.7 ± 0.4
x1 = 0.2502 | – | 928 ± 0.3 | 932.4 ± 0.4
x1 = 0.2745 | – | 921.3 ± 0.4 | 925.9 ± 0.4
x1 = 0.3009 | – | 914.5 ± 0.4 | 919.2 ± 0.4
x1 = 0.35 | – | 902.3 ± 0.4 | –
x1 = 0.4034 | – | 890.4 ± 0.4 | –
x1 = 0.4501 | – | 880.4 ± 0.4 | –
x1 = 0.498 | – | 871.3 ± 0.4 | –
x1 = 0.5501 | – | 861.9 ± 0.4 | –
x1 = 0.5998 | – | 853.7 ± 0.5 | –
x1 = 0.6489 | – | 846 ± 0.5 | –
x1 = 0.6967 | 832.3 ± 0.4 | 839 ± 0.5 | –
x1 = 0.7475 | 825.4 ± 0.4 | 832.3 ± 0.5 | –
x1 = 0.7996 | 818.3 ± 0.4 | 825.4 ± 0.5 | –
x1 = 0.8484 | 812.1 ± 0.4 | 819.3 ± 0.5 | –
x1 = 0.8993 | 805.8 ± 0.4 | 813.3 ± 0.5 | –
x1 = 0.9503 | 799.9 ± 0.4 | 807.5 ± 0.5 | –
x1 = 1 | 794 ± 0.4 | 801.9 ± 0.6 | –
